This is an account of results in US20190375708A1 (VenatoRx Pharmaceuticals, Inc., priority 2018, published 2019).

Series [1] relates to HBV replication in HepAD38 cells. Description: Anti-HBV replication assay in HepAD38 cells (QPCR of extracellular HBV DNA). The class given is cell-based, HBV (genotype D, serotype ayw). The note with it: Hepatitis B virus, 168 h, 7 days incubation, extracellular HBV DNA by QPCR, read-out: Anti-HBV EC50. An outline of the steps: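 Stably transfected HepG2-derived HepAD38 cells express HBV (genotype D, ayw) once tetracycline is withdrawn. Compounds act for 7 days, after which secreted HBV DNA is quantified by QPCR relative to DMSO-treated wells.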

A short description of series [2]: In vitro cytotoxicity assay (MTT cell viability) in HepG2 cells. It is filed as cell-based, human. The note with it: human. The essentials:
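Read-out: MTT formazan absorbance at 492 nm, expressed as % of vehicle signal; CC50 by 4-parameter non-linear regression. Parental HepG2, 20,000 cells/well, treated 7 days with compound from 30 μM down to 1.0 nM.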

pEC50: −log10 of the molar value.

As to `Cc1c(C(=O)Nc2ccc(F)nc2)c(C)n(C)c1C(=O)C(=O)NC1CCc2nc(N)sc2C1` (centres unmarked) [Example 77, 5-(2-((2-amino-4,5,6,7-tetrahydrobenzo[d]thiazol-6-yl)amino)-2-oxoacetyl)-N-(6-fluoropyridin-3-yl)-1,2,4-trimethyl-1H-pyrrole-3-carboxamide], in series [1], the pEC50 was 6.30 to 7.30. For the same compound, the cytotoxic concentration (CC50) at 7 days in series [2] is greater than 30000 nM.
In the same order, the values of `Cc1cc(NC(=O)c2c(C)c(C(=O)C(=O)N[C@@H](CO)C(C)(C)C)n(C)c2C)ccc1F` [Example 78, (R)—N-(4-fluoro-3-methylphenyl)-5-(2-((1-hydroxy-3,3-dimethylbutan-2-yl)amino)-2-oxoacetyl)-1,2,4-trimethyl-1H-pyrrole-3-carboxamide] are greater than 7.30 and greater than 30000 nM.
In the same order, the values of `Cc1cc(NC(=O)c2c(C)c(C(=O)C(=O)NC(C)c3nn[nH]n3)n(C)c2C)ccc1F` (centres unmarked) [Example 79, 5-(2-((1-(2H-tetrazol-5-yl)ethyl)amino)-2-oxoacetyl)-N-(4-fluoro-3-methylphenyl)-1,2,4-trimethyl-1H-pyrrole-3-carboxamide] are 6.30 to 7.30 and greater than 30000 nM.
Consider `Cc1cc(NC(=O)c2c(C)c(C(=O)C(=O)NC(CC(C)C)c3nn[nH]n3)n(C)c2C)ccc1F` (centres unmarked) [Example 80, N-(4-fluoro-3-methylphenyl)-1,2,4-trimethyl-5-(2-((3-methyl-1-(2H-tetrazol-5-yl)butyl)amino)-2-oxoacetyl)-1H-pyrrole-3-carboxamide], for which the pEC50 in series [1] is 6.30 to 7.30. The 50% cytotoxic concentration (CC50) at 7 days in series [2] is greater than 30000 nM.
For `Cc1noc(C(NC(=O)C(=O)c2c(C)c(C(=O)Nc3ccc(F)c(C)c3)c(C)n2C)C(C)C)n1` (centres unmarked) [Example 81, N-(4-fluoro-3-methylphenyl)-1,2,4-trimethyl-5-(2-((2-methyl-1-(3-methyl-1,2,4-oxadiazol-5-yl)propyl)amino)-2-oxoacetyl)-1H-pyrrole-3-carboxamide], in that order: greater than 7.30 and greater than 30000 nM.
For `Cc1noc(C(C)NC(=O)C(=O)c2c(C)c(C(=O)Nc3ccc(F)c(C)c3)c(C)n2C)n1` (centres unmarked) [Example 82, N-(4-fluoro-3-methylphenyl)-1,2,4-trimethyl-5-(2-((1-(3-methyl-1,2,4-oxadiazol-5-yl)ethyl)amino)-2-oxoacetyl)-1H-pyrrole-3-carboxamide], in that order: greater than 7.30 and greater than 30000 nM.
As for `Cc1cnc(C(NC(=O)C(=O)c2c(C)c(C(=O)Nc3ccc(F)c(C)c3)c(C)n2C)C2CC2)s1` (centres unmarked) [Example 83, 5-(2-((cyclopropyl(5-methylthiazol-2-yl)methyl)amino)-2-oxoacetyl)-N-(4-fluoro-3-methylphenyl)-1,2,4-trimethyl-1H-pyrrole-3-carboxamide], in series [1], the pEC50 is greater than 7.30. Besides, the CC50 at 7 days in series [2] was 5000 to 30000 nM.
For `Cc1cnc(C(C)(C)NC(=O)C(=O)c2c(C)c(C(=O)Nc3ccc(F)c(C)c3)c(C)n2C)s1` [Example 84, N-(4-fluoro-3-methylphenyl)-1,2,4-trimethyl-5-(2-((2-(5-methylthiazol-2-yl)propan-2-yl)amino)-2-oxoacetyl)-1H-pyrrole-3-carboxamide], in that order: greater than 7.30 and greater than 30000 nM.
In the same order, the values of `Cc1noc(C(NC(=O)C(=O)c2c(C)c(C(=O)Nc3ccc(F)c(C)c3)c(C)n2C)C2CCOCC2)n1` (centres unmarked) [Example 85, N-(4-fluoro-3-methylphenyl)-1,2,4-trimethyl-5-(2-(((3-methyl-1,2,4-oxadiazol-5-yl)(tetrahydro-2H-pyran-4-yl)methyl)amino)-2-oxoacetyl)-1H-pyrrole-3-carboxamide] are greater than 7.30 and greater than 30000 nM.
For `Cc1cc(NC(=O)c2c(C)c(C(=O)C(=O)N[C@@H](C(=O)NCCO)C(C)(C)C)n(C)c2C)ccc1F` [Example 86, (R)-N-(4-fluoro-3-methylphenyl)-5-(2-((1-((2-hydroxyethyl)amino)-3,3-dimethyl-1-oxobutan-2-yl)amino)-2-oxoacteyl)-1,2,4-trimethyl-1H-pyrrole-3-carboxamide], in that order: greater than 7.30 and 5000 to 30000 nM.
Consider `Cc1cc(NC(=O)c2c(C)c(C(=O)C(=O)N[C@@H](C(=O)NCC(C)(C)O)C(C)(C)C)n(C)c2C)ccc1F` [Example 87, (R)-N-(4-fluoro-3-methylphenyl)-5-(2-((1-((2-hydroxy-2-methylpropyl)amino)-3,3-dimethyl-1-oxobutan-2-yl)amino)-2-oxoacetyl)-1,2,4-trimethyl-1H-pyrrole-3-carboxamide], for which the pEC50 in series [1] is greater than 7.30. Further, in series [2], the CC50 at 7 days is greater than 30000 nM.
For `Cc1cc(NC(=O)c2c(C)c(C(=O)C(=O)N[C@@H](C)C(C)(C)C)n(C)c2C)ccc1F` [Example 88, (S)-5-(2-((3,3-dimethylbutan-2-yl)amino)-2-oxoacetyl)-N-(4-fluoro-3-methylphenyl)-1,2,4-trimethyl-1H-pyrrole-3-carboxamide], in that order: greater than 7.30 and 5000 to 30000 nM.
Take `Cc1c(C(=O)Nc2ccnc(F)c2)c(C)n(C)c1C(=O)C(=O)NC(C)(C)C` [Example 89, 5-(2-(tert-butylamino)-2-oxoacetyl)-N-(2-fluoropyridin-4-yl)-1,2,4-trimethyl-1H-pyrrole-3-carboxamide]: the pEC50 in series [1] is greater than 7.30. The compound also gave a CC50 at 7 days in series [2] greater than 30000 nM.
In the same order, the values of `Cc1c(C(=O)Nc2ccnc(F)c2)c(C)n(C)c1C(=O)C(=O)NC12CC3CC(CC1C3)C2` [Example 90, N-(2-fluoropyridin-4-yl)-5-(2-(((2R,3as,5S,6as)-hexahydro-2,5-methanopentalen-3a(1H)-yl)amino)-2-oxoacetyl)-1,2,4-trimethyl-1H-pyrrole-3-carboxamide] are greater than 7.30 and 5000 to 30000 nM.
With `Cc1c(C(=O)Nc2ccc(F)nc2)c(C)n(C)c1C(=O)C(=O)NC1C2CC3CC(C2)CC1C3` (centres unmarked) [Example 91, 5-(2-(((1r,3r)-adamantan-2-yl)amino)-2-oxoacetyl)-N-(6-fluoropyridin-3-yl)-1,2,4-trimethyl-1H-pyrrole-3-carboxamide], the pEC50 in series [1] is greater than 7.30. This compound also registered a CC50 at 7 days in series [2] greater than 30000 nM.
Take `Cc1c(C(=O)Nc2ccc(F)nc2)c(C)n(C)c1C(=O)C(=O)N[C@H]1C2CC3CC1C[C@](O)(C3)C2` [Example 92, N-(6-fluoropyridin-3-yl)-5-(2-(((1R,2s,3S,5s,7s)-5-hydroxyadamantan-2-yl)amino)-2-oxoacetyl)-1,2,4-trimethyl-1H-pyrrole-3-carboxamide]: the pEC50 in series [1] was 6.30 to 7.30. In series [2], this compound yielded a CC50 at 7 days greater than 30000 nM.
In the same order, the values of `Cc1c(C(=O)Nc2ccc(F)nc2)c(C)n(C)c1C(=O)C(=O)NC1(C(N)=O)CCCCC1` [Example 93, 5-(2-((1-carbamoylcyclohexyl)amino)-2-oxoacetyl)-N-(6-fluoropyridin-3-yl)-1,2,4-trimethyl-1H-pyrrole-3-carboxamide] are 6.30 to 7.30 and greater than 30000 nM.
For `Cc1cc(NC(=O)c2c(C)c(C(=O)C(=O)N[C@H]3CCC[C@H]3O)n(C)c2C)ccc1F` [Example 94, N-(4-fluoro-3-methylphenyl)-5-(2-(((1S,2R)-2-hydroxycyclopentyl)amino)-2-oxoacetyl)-1,2,4-trimethyl-1H-pyrrole-3-carboxamide], in that order: greater than 7.30 and greater than 30000 nM.
Consider `Cc1cc(NC(=O)c2c(C)c(C(=O)C(=O)N[C@@H]3CCC[C@H]3O)n(C)c2C)ccc1F` [Example 95, N-(4-fluoro-3-methylphenyl)-5-(2-(((1R,2R)-2-hydroxycyclopentyl)amino)-2-oxoacetyl)-1,2,4-trimethyl-1H-pyrrole-3-carboxamide], for which, in series [1], the pEC50 is greater than 7.30. For the same compound, in series [2], the CC50 at 7 days was greater than 30000 nM.
For `CCn1c(C)c(C(=O)Nc2ccc(F)c(C)c2)c(C)c1C(=O)C(=O)NC(C)(C)C` [Example 96, 5-(2-(tert-butylamino)-2-oxoacetyl)-1-ethyl-N-(4-fluoro-3-methylphenyl)-2,4-dimethyl-1H-pyrrole-3-carboxamide], in that order: greater than 7.30 and greater than 30000 nM.
In the same order, the values of `Cc1cc(NC(=O)c2c(C)c(C(=O)C(=O)NCc3cnc(N)s3)n(C)c2C)ccc1F` [Example 97, 5-(2-(((2-aminothiazol-5-yl)methyl)amino)-2-oxoacetyl)-N-(4-fluoro-3-methylphenyl)-1,2,4-trimethyl-1H-pyrrole-3-carboxamide] are greater than 7.30 and greater than 30000 nM.
In the case of `CCn1c(C)c(C(=O)Nc2ccc(F)c(C)c2)c(C)c1C(=O)C(=O)NC(C)(C)CO` [Example 98, 1-ethyl-N-(4-fluoro-3-methylphenyl)-5-(2-((1-hydroxy-2-methylpropan-2-yl)amino)-2-oxoacetyl)-2,4-dimethyl-1H-pyrrole-3-carboxamide], in series [1], the pEC50 is greater than 7.30. The compound further had a CC50 at 7 days in series [2] greater than 30000 nM.
In the same order, the values of `CCn1c(C)c(C(=O)Nc2ccc(F)c(C)c2)c(C)c1C(=O)C(=O)NC(C)(C)C(N)=O` [Example 99, 5-(2-((1-amino-2-methyl-1-oxopropan-2-yl)amino)-2-oxoacetyl)-1-ethyl-N-(4-fluoro-3-methylphenyl)-2,4-dimethyl-1H-pyrrole-3-carboxamide] are 6.30 to 7.30 and greater than 30000 nM.
For `Cc1cc(NC(=O)c2c(C)c(C(=O)C(=O)N[C@H](C(=O)O)C(C)C)n(C)c2C)ccc1F` [Example 100, (2-(4-((4-fluoro-3-methylphenyl)carbamoyl)-1,3,5-trimethyl-1H-pyrrol-2-yl)-2-oxoacetyl)-L-valine], in that order: less than 6.00 and 5000 to 30000 nM.
Turning to `Cc1cc(NC(=O)c2c(C)c(C(=O)C(=O)N[C@@H](C(=O)O)C(C)C)n(C)c2C)ccc1F` [Example 101, (2-(4-((4-fluoro-3-methylphenyl)carbamoyl)-1,3,5-trimethyl-1H-pyrrol-2-yl)-2-oxoacetyl)-D-valine], the pEC50 in series [1] was less than 6.00. This compound yielded a 50% cytotoxic concentration (CC50) at 7 days in series [2] of 5000 to 30000 nM.
